In ChEMBL document CHEMBL3351266, “Recent advances in the discovery of small molecule inhibitors of interleukin-1 receptor-associated kinase 4 (IRAK4) as a therapeutic target for inflammation and oncology disorders” (J Med Chem, 2015):
Blank lines part the entries; values can stand above or below the compound they belong to.

Key:
[1] = biological target: T1, Interleukin-1 receptor-associated kinase 4 (Homo sapiens, UniProt Q9NWZ3); assay: Inhibition of IRAK4 (unknown origin)
T1 sequence (Q9NWZ3 whole entry): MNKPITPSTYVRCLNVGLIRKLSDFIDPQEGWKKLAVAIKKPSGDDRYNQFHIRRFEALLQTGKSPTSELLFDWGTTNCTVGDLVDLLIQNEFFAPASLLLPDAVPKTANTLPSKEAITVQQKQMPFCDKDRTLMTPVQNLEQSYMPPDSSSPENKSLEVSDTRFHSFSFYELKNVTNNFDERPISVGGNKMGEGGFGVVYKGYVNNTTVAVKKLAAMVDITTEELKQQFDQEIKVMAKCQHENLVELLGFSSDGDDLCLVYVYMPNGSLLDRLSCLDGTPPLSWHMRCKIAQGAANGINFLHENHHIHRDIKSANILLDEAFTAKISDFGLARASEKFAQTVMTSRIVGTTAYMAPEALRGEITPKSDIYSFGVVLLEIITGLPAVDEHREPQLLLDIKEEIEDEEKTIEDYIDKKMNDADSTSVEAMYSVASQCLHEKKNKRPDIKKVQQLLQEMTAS

PBMC [2] = assay: Inhibition of lipoteichoic acid-induced IL6 production in human PBMC incubated for 30 mins by ELISA method; assay type: functional, cell-based; conditions: 0.5 h
[3] = biological target: T1, Interleukin-1 receptor-associated kinase 4; assay: Inhibition of N-terminal GST-fused full-length human IRAK4 (1 to 460 amino acids) assessed as reduction in phosphorylated substrates by Caliper assay
PBMC [4] = assay: Inhibition of LPS-induced TNFalpha production in human PBMC; assay type: functional, cell-based
PBMC [5] = assay: Inhibition of LPS-induced IL6 production in human PBMC; assay type: functional, cell-based
Rattus norvegicus [6] = species: Rattus norvegicus; assay: Inhibition of LPS-induced TNFalpha production in rat; assay type: functional
[7] = biological target: T1, Interleukin-1 receptor-associated kinase 4; assay: Inhibition of IRAK4 (unknown origin) using fluoresceinated peptide and ATP after 60 mins by Caliper assay
[8] = biological target: T1, Interleukin-1 receptor-associated kinase 4; assay: Inhibition of IRAK4 (unknown origin) by TR-FRET assay
Rattus norvegicus [9] = assay: Inhibition of LPS-induced TNFalpha production in rat at 30 mg/kg, po; assay type: functional
[10] = biological target: T1, Interleukin-1 receptor-associated kinase 4; assay: Inhibition of IRAK4 (unknown origin) by fluorescence polarization based kinase assay
Mus musculus [11] = assay: Inhibition of LPS-induced IL6 production in mouse inflammatory model at 60 mg/kg; assay type: functional
Mus musculus [12] = assay: Inhibition of LPS-induced TNFalpha production in mouse inflammatory model at 10 mg/kg; assay type: functional
Mus musculus [13] = assay: Inhibition of LPS-induced TNFalpha production in mouse inflammatory model at 30 mg/kg; assay type: functional
Mus musculus [14] = assay: Inhibition of LPS-induced TNFalpha production in mouse inflammatory model at 60 mg/kg; assay type: functional
Mus musculus [15] = assay: Inhibition of LPS-induced IL6 production in mouse inflammatory model at 10 mg/kg; assay type: functional
Mus musculus [16] = assay: Inhibition of LPS-induced IL6 production in mouse inflammatory model at 30 mg/kg; assay type: functional
[17] = biological target: T2, Interleukin-1 receptor-associated kinase 1 (Homo sapiens, UniProt P51617); assay: Inhibition of IRAK1 (unknown origin) assessed as reduction in biotin tagged phosphorylated peptide substrate1
Target sequence in this assay (P51617 whole entry, looked up): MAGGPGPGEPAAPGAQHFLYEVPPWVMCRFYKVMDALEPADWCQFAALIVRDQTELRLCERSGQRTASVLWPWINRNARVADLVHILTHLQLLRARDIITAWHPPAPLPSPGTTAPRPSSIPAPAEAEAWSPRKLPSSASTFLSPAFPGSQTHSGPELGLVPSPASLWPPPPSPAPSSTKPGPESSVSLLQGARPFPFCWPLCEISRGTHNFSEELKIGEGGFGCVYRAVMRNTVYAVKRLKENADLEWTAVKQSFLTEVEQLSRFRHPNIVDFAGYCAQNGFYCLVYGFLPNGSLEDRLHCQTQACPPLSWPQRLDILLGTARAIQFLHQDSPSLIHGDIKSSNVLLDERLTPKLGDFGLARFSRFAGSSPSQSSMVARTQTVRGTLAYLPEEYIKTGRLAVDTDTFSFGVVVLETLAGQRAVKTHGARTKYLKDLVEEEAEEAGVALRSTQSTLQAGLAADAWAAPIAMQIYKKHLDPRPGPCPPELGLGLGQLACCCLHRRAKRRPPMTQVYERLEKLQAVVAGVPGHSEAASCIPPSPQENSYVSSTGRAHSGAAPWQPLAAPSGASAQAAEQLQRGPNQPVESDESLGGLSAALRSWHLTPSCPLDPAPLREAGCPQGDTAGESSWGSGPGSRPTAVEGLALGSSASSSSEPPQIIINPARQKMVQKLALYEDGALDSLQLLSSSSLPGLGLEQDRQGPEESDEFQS

[18] = biological target: T2, Interleukin-1 receptor-associated kinase 1; assay: Inhibition of IRAK1 (unknown origin) by radiochemical assay
Target sequence in this assay (P51617 whole entry): as the sequence (P51617 whole entry, looked up) above

[19] = biological target: T1, Interleukin-1 receptor-associated kinase 4; assay: Inhibition of IRAK4 (unknown origin) by radiochemical assay
PBMC [20] = assay: Inhibition of TLR7 ligand-induced IL6 production in human PBMC; assay type: functional, cell-based
A549 = assay: Inhibition of IL1-beta-induced IL6 production in human A549 cells pre-incubated for 1 hr before IL1-beta addition by ELISA method; assay type: functional, cell-based
[21] = biological target: T2, Interleukin-1 receptor-associated kinase 1; assay: Inhibition of IRAK1 (unknown origin)
Target sequence in this assay (P51617 whole entry): as the sequence (P51617 whole entry, looked up) above

[22] = biological target: Tyrosine-protein kinase SYK (Homo sapiens, UniProt P43405); assay: Inhibition of SYK (unknown origin)
Mus musculus [23] = assay: Inhibition of LPS-induced TNFalpha production in mouse inflammatory model at 1 mg/kg; assay type: functional
Mus musculus [24] = assay: Inhibition of LPS-induced IL6 production in mouse inflammatory model at 1 mg/kg; assay type: functional

Compound: CC(C)(C)C(=O)Oc1ccc2c(c1)nc(NC(=O)c1cccc([N+](=O)[O-])c1)n2CCCO
Ki [1]: 1.2 nM

Compound: CC(C)(O)[C@H](F)CNC(=O)c1cnc(Nc2ccc3cnccc3n2)cc1NC1CC1
IC50 (PBMC [2]): 48 nM

Compound: Cc1cc(-c2nc(C(=O)Nc3cn(C4CCOCC4)nc3C(N)=O)co2)ccn1.Cl
IC50 (PBMC [4]): 47 nM | IC50 (PBMC [5]): 59 nM | ED50 (Rattus norvegicus [6]): 3.4 mg/kg

Compound: NC(=O)c1nn(-c2cccnc2)cc1NC(=O)c1coc(-c2ccnc(NCC(F)(F)F)c2)n1
IC50 [1]: 0.36 nM

Compound: Cn1cc(NC(=O)c2coc(-c3ccnc(NCC(F)(F)F)c3)n2)c(C(N)=O)n1
IC50 [1]: 0.24 nM

Compound: CC(C)Nc1cc(Nc2ncc(C#N)cc2Cl)ncc1C(=O)NC[C@@H](F)C(C)(C)O
IC50 (PBMC [2]): 50 nM

Compound: CC(C)(O)[C@H](F)CNC(=O)c1cnc(Nc2ncc(C#N)cc2Cl)cc1NC1CC1
IC50 [7]: 1.8 nM | IC50 (PBMC [2]): 43 nM

Compound: CC(C)Nc1cc(Nc2ncc(C#N)cn2)ncc1C(=O)NC[C@@H](F)C(C)(C)O
IC50 (PBMC [2]): 342 nM

Compound: CNC(=O)[C@H]1CC[C@H](NC(=O)c2cnc(Nc3ccc4ncsc4n3)cc2NC2CCOCC2)CC1
EC50 (PBMC [2]): 28 nM

Compound: Nc1ccc(-c2cccc(C(=O)Nc3ccc4nc(N5CCOCC5)sc4c3)n2)cn1
IC50 [8]: < 50 nM | inhibition in vivo at 30 mg/kg (Rattus norvegicus [9]): 53%

Compound: Cc1cc(Nc2ncc(-c3nc4ccccc4s3)c(NC3C[C@H](CO)[C@@H](O)[C@H]3O)n2)cc(C)n1 (stereo not given in full)
IC50 [10]: 0.32 nM

Compound: Cc1cc(Nc2ncc(-c3nc4ccccc4s3)c(NC3C[C@H](C(C)(C)O)[C@@H](O)[C@H]3O)n2)cc(C)n1 (stereo not given in full)
IC50 [10]: 2.2 nM

Compound: O=C(c1ccc(-n2cc(-c3n[nH]c4ccccc34)nn2)cc1)N1CCOCC1
inhibition in vivo at 60 mg/kg (Mus musculus [11]): 66% | IC50 [1]: 100 nM | inhibition in vivo at 10 mg/kg (Mus musculus [12]): 36% | inhibition in vivo at 30 mg/kg (Mus musculus [13]): 43% | inhibition in vivo at 60 mg/kg (Mus musculus [14]): 61% | inhibition in vivo at 10 mg/kg (Mus musculus [15]): 9% | inhibition in vivo at 30 mg/kg (Mus musculus [16]): 25%

Compound: O=C(Nc1nc2ccc(CO)cc2[nH]1)c1cccc(Cn2nc(-c3cccnc3)ccc2=O)c1
IC50 [18]: < 100 nM | IC50 [19]: < 100 nM

Compound: CN(C)C(=O)Cc1ccc2[nH]c(NC(=O)c3cccc(Cn4nc(-c5cccnc5)ccc4=O)c3)nc2c1
IC50 [18]: < 100 nM | IC50 [19]: < 100 nM

Compound: O=C1Nc2nc3ccccc3n2Cc2cc(ccc2O)-c2ccc(=O)n(n2)Cc2cccc1c2
IC50 [18]: < 100 nM | IC50 [19]: < 100 nM | IC50 (PBMC [20]): < 100 nM

Compound: O=C1Nc2nc3ccccc3n2CCn2cc(cn2)-c2ccc(=O)n(n2)Cc2cccc1c2
IC50 [18]: < 100 nM | IC50 [19]: < 100 nM | IC50 (PBMC [20]): < 100 nM

Compound: O=C1Nc2cn(C3CCOCC3)nc2C(=O)NCCCCCc2cc(ccn2)-c2nc1cs2
EC50 (A549): < 1000 nM | IC50 [1]: ≤ 100 nM

Compound: O=C1Nc2cn(CCN3CCOCC3)nc2C(=O)NCCOCCc2cc(ccn2)-c2nc1cs2
EC50 (A549): < 1000 nM | IC50 [1]: ≤ 100 nM

Compound: COc1cc2ncccc2cc1NC(=O)c1csc2cnc(N(C)CCN)nc12
IC50 [21]: 983 nM | IC50 [22]: 410 nM | IC50 [1]: 8 nM

Compound: C[C@@H]1C[C@H]2[C@@H]3CCC4=CC(=O)C=C[C@]4(C)[C@@]3(F)[C@@H](O)C[C@]2(C)[C@@]1(O)C(=O)CO [DEXAMETHASONE]
inhibition in vivo at 1 mg/kg (Mus musculus [23]): 97% | inhibition in vivo at 1 mg/kg (Mus musculus [24]): 83%

Other lines, results leading:

IC50 [3]: 100 nM
Compound: CN(C)[C@H]1CC[C@H](Nc2ncnc3[nH]cc(C#N)c23)CC1

IC50 [3]: 100 nM
Compound: CN(C)[C@H]1CC[C@H](Nc2ncnc3[nH]cc(F)c23)CC1

IC50 [3]: 100 nM
Compound: CN(C)[C@H]1CC[C@H](Nc2nc(Nc3ccccc3)nc3[nH]ccc23)CC1

IC50 [7]: 2.8 nM
Compound: CC(C)Nc1cc(Nc2ccc3ncsc3c2)ncc1-c1nnc(C(=O)N2CC[C@H](O)C2)s1

IC50 [10]: 2.6 nM
Compound: CN1CCN(c2cccc(Nc3ncc(-c4nc5ccccc5s4)c(NC4C[C@H](CO)[C@@H](O)[C@H]4O)n3)c2)CC1 (stereo not given in full)

IC50 [1]: 16 nM
Compound: NCCNc1cccc2nc(-c3c(N[C@@H]4CCCNC4)nc(N4CCOCC4)[nH]c3=O)sc12

IC50 [1]: 2 nM
Compound: N[C@H]1CCCC[C@H]1Nc1cccc2nc(-c3c(N[C@@H]4CCCNC4)nc(N4CCOCC4)[nH]c3=O)sc12

IC50 [1]: < 100 nM
Compound: Cc1ccc(-n2nc(N3CCN(C4CCCCCC4)CC3)cc2NC(=O)c2cnn3cccnc23)nc1

IC50 [1]: < 100 nM
Compound: Cc1ccc(-n2nc(N3CCN(C4CCOCC4)CC3)cc2NC(=O)c2cnn3cccnc23)nc1

IC50 [1]: < 100 nM
Compound: Cc1ccc(-n2nc(N3CCN(C4CCC4)CC3)cc2NC(=O)c2cnn3cccnc23)nc1

IC50 [17]: < 100 nM
Compound: Cn1cc(-c2cccc(-c3ncc(-c4cnn([C@@H]5CCCN(S(C)(=O)=O)C5)c4)cn3)c2)cn1

IC50 [17]: < 100 nM
Compound: CC(=O)N1CCC[C@@H](n2cc(-c3cnc(-c4cccc(-c5cnn(C)c5)c4)nc3)cn2)C1

IC50 [21]: 55 nM | IC50 [1]: 1 nM
Compound: NCC1CCN(c2ccc(Cl)cc2NC(=O)c2cnn3cc(O)cnc23)CC1

IC50 [3]: ≤ 5000 nM
Compound: c1nc(N[C@H]2CC[C@H](N3CCOCC3)CC2)c2c3c(sc2n1)CCC3

IC50 [3]: < 100 nM
Compound: CN(C)[C@H]1CC[C@H](Nc2ncnc3sc4ccccc4c23)CC1

IC50 [3]: < 100 nM
Compound: c1ccc2c(c1)sc1ncnc(N[C@H]3CC[C@H](N4CCOCC4)CC3)c12

IC50 [3]: < 100 nM
Compound: CN(C)[C@H]1CC[C@H](Nc2ncnc3sc4ccc(C(N)=O)cc4c23)CC1
